Patent publication US20250145576A1, “CATHEPSIN K INHIBITOR, AND PREPARATION METHOD THEREFOR AND USE THEREOF” (SHANDONG NEW TIME PHARMACEUTICAL CO., LTD., priority 2022, published 2025)
Like-named read-outs stand apart in the source and are kept apart here.

How the values were obtained:
Cathepsin S = assay: Screening of Cathepsin S, fluorescence; assay type: biochemical; details: >> inhibition rate did not exceed 20% at test concentration; > greater than 35%; ≈ about 50%; < less than 50%
Description: (§1) 10 μL of a buffer, a Cat S inhibitor and test compounds (1 μM and 10 μM) were added to 96-well plates to serve as an EC well, an IC well and an S well, respectively; 50 μL of a Cat B enzyme solution was added into all the wells respectively and the mixture was incubated for 10-15 min at room temperature to establish an enzyme inhibitor complex; 40 μL of a Cat S substrate solution was added into all the wells and the mixture was incubated for 30-60 min at room temperature; and the final volume of the reaction was 100 μL.
(§2) The screening method was the same as above, the concentrations of the test compounds were set between 0.1 nM and 10 μM, 4-5 concentrations were selected for detection, IC50 curves were drawn, and IC50 values were calculated.

Cathepsin B = Cathepsin B (Homo sapiens (Human), UniProt P07858); assay: Screening of Cathepsin B, fluorescence; assay type: biochemical; details: >> inhibition rate did not exceed 20% at test concentration; > greater than 35%; ≈ about 50%; < less than 50%
Description: as §1, with “Cat B” for “Cat S”
as §2

Cathepsin K = Cathepsin K (Homo sapiens (Human), UniProt P43235); assay: Cat K inhibitor screening kit, AFC substrate fluorescence; assay type: biochemical
Description: Reagent information: Cat K inhibitor screening kit: batch number, 6L23K01500; supplier, BiVision. Drug preparation: compounds were dissolved in DMSO and prepared into 10 mM stock solutions. When in use, the stock solutions were prepared into the required concentrations by using a buffer.
Cathepsin K (CTSK, EC 3.4.22.38) is a lysosomal cysteine protease, participates in osteoclastic bone remodeling and resorption, and can further degrade collagen, gelatin and elastin. The cathepsin K inhibitor screening kit from Biovision uses the ability of the active cathepsin K to cleave a synthetic AFC-based peptide substrate to release AFC and the AFC can be easily quantified by using a fluorometer or fluorescent microplate reader. In the presence of a specific cathepsin K specific inhibitor, the cleavage of the substrate is reduced/eliminated, resulting in a reduction or complete loss of AFC fluorescence. The simple and high-throughput adaptive assay kit can be used to screen/study/characterize a potential inhibitor of the cathepsin K.
as §1, with “20 μL” for “10 μL”, “Cat K” for “Cat S”, “Cat K” for “Cat B”, “complex; 30” for “complex; 40”
The screening method was the same as 1.1, the concentrations of the test compounds were set between 0.1 nM and 10 μM, 4-5 concentrations were selected for detection, IC50 curves were drawn, and IC50 values were calculated.

[1] = parameters: species or system SD rats; details: rat, in vivo
Description: • Chromatographic column: […] Electrospray ionization (ESI); ion spray voltage: 3,500 V; ion source temperature: 300° C.; auxiliary gas: 45 Arb; and sheath gas: 10 Arb. • Intravenous intraperitoneal administration solution: prepared with 0.5% HS-15 normal saline solution with the concentration of 0.2 mg/mL; and • intragastric administration suspension: ground and suspended with 0.5% CMC-Na aqueous solution with the concentration of 0.5 mg/mL. Each administration was tested using 2 SD rats per compound. The two compounds […] were subjected to intravenous injection and intragastric administration respectively. […] All blood samples were anticoagulated by heparin and centrifuged for 10 min at 4,000 g. The supernatant plasma was taken for cryopreservation to be tested. 50 μL of the plasma sample was taken, 150 μL of acetonitrile was added, the mixture was evenly mixed by vortex and centrifuged at 9,100 g for 10 min, and a supernatant was taken and 2 μL of the supernatant was injected and detected on a machine.

RAW264.7 cells = assay: Osteoclast differentiation of RAW264.7 cells induced by RANKL, TRAP staining; assay type: cell-based; details: for osteoclastogenesis compared with model group (in words): K29 at 1 μM and 10 μM, K31 at 100 nM and 500 nM
Description: RAW264.7 cells were inoculated at a density of 1×10^5/well in 96-well plates and cultured in DMEM containing 10% fetal bovine serum and 1% penicillin/streptomycin. The cells were cultured in a constant-temperature incubator containing 5% CO2 at 37° C. 100 ng/mL of a RANKL inducing solution was added into each well of the administration groups and a model group to culture osteoclasts, the solution (containing RANKL) was changed every 2-3 days, inhibitor working solutions with different concentrations were added into the administration groups after the solution was changed for the 3rd time, a PBS working solution with the same volume was added into the model group, and the cells were continuously cultured for 24 h; and in the control group, the RANKL inducing solution and the inhibitor working solution were not added, and the PBS working solution with the same total volume was added. A culture supernatant was removed, the cells were rinsed 3 times with PBS and stained with a TRAP staining kit, and the multinucleated osteoclasts were observed under an optical microscope and counted.

Cathepsin K, sequence (P43235 115-329): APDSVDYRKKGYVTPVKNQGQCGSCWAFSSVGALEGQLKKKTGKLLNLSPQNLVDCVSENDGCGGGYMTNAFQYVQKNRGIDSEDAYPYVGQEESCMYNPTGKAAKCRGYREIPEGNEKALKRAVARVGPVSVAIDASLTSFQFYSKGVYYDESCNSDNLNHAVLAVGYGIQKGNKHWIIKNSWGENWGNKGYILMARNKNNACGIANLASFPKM

With `CN1CCN(c2ccc(CN(CC(C)(C)C)c3nccc(C#N)n3)cc2)CC1` [Compound K1, 2-[(2,2-dimethylpropyl){[4-(4-methylpiperazin-1-yl)phenyl]methyl}amino]pyrimidine-4-carbonitrile] the “Cat S/K ratio of inhibitory activities” value (Cathepsin S) was over 800, the “Cat B/K ratio of inhibitory activities” value (Cathepsin B) was >1,600 and the IC50 (Cathepsin K) was 10 to 100 nM. For the same molecule, the IC50 (Cathepsin K; stated in text) was under 100 nM.
In the case of `CC(C)(C)CN(Cc1ccc(-c2ccccc2)cc1)c1nccc(C#N)n1` [Compound K2, 2-[(2,2-dimethylpropyl)[(4-phenylphenyl)methyl]amino]pyrimidine-4-carbonitrile], the “Cat S/K ratio of inhibitory activities” value (Cathepsin S) is reported as >>2,100, the “Cat B/K ratio of inhibitory activities” value (Cathepsin B) is reported as >>2,100 and the IC50 (Cathepsin K) is reported as 100 to 500 nM.
In the case of `CC(C)(C)CN(Cc1ccc(-c2ccc(S(C)(=O)=O)cc2)cc1)c1nccc(C#N)n1` [Compound K6, 2-[(2,2-dimethylpropyl) ({4-[4-(methylsulfonyl)phenyl]phenyl}methyl)amino]pyrimidine-4-carbonitrile], the “Cat S/K ratio of inhibitory activities” value (Cathepsin S) is reported as >>3,300, the “Cat B/K ratio of inhibitory activities” value (Cathepsin B) is reported as >>3,300 and the IC50 (Cathepsin K) is reported as 100 to 500 nM.
Molecule `CC(C)(C)CN(Cc1ccc(-c2ccc(C#N)s2)cc1)c1nccc(C#N)n1` [Compound K7, 2-({[4-(5-cyanothiophen-2-yl)phenyl]methyl}(2,2-dimethylpropyl)amino)pyrimidine-4-carbonitrile] has an IC50 (Cathepsin K) of 100 to 500 nM.
`Cc1ccc(-c2ccc(CN(CC(C)(C)C)c3nccc(C#N)n3)cc2)s1` [Compound K10, 2-[(2,2-dimethylpropyl){[4-(5-methylthiophen-2-yl)phenyl]methyl}amino]pyrimidine-4-carbonitrile] showed an IC50 (Cathepsin K) of 100 to 500 nM.
With `CN1CCN(c2ccc(-c3ccc(CN(CC(C)(C)C)c4nccc(C#N)n4)cc3)cc2)CC1` [Compound K13, 2-[(2,2-dimethylpropyl) ({4-[4-(4-methylpiperazin-1-yl)phenyl]phenyl}methyl)amino]pyrimidine-4-carbonitrile] the IC50 (Cathepsin K) was under 10 nM and the IC50 (Cathepsin K; stated in text) was under 10 nM.
In the case of `CN1CCN(c2ccc(-c3ccc(CN(CC4CCCCC4)c4nccc(C#N)n4)cc3)cc2)CC1` [Compound K15, 2-[(cyclohexylmethyl) ({4-[4-(4-methylpiperazin-1-yl)phenyl]phenyl}methyl)amino]pyrimidine-4-carbonitrile], the “Cat S/K ratio of inhibitory activities” value (Cathepsin S) is reported as “≈7,460”, the “Cat B/K ratio of inhibitory activities” value (Cathepsin B) is reported as >15,000 and the IC50 (Cathepsin K) is reported as under 10 nM. For the same molecule, the IC50 (Cathepsin K; stated in text) was under 10 nM.
With `CS(=O)(=O)c1ccc(-c2ccc(CN(CC3CCCCC3)c3nccc(C#N)n3)cc2)cc1` [Compound K16, 2-[(cyclohexylmethyl) ({4-[4-(methylsulfonyl)phenyl]phenyl}methyl)amino]pyrimidine-4-carbonitrile] the “Cat S/K ratio of inhibitory activities” value (Cathepsin S) was >>3,300, the “Cat B/K ratio of inhibitory activities” value (Cathepsin B) was >>3,300 and the IC50 (Cathepsin K) was 100 to 500 nM.
`CC(C)(C)CN(Cc1ccc(-c2cscn2)cc1)c1nccc(C#N)n1` [Compound K17, 2-(neopentyl(4-(thiazol-4-yl)benzyl)amino)pyrimidine-4-carbonitrile] gave an IC50 (Cathepsin K) of 100 to 500 nM.
In the case of `O=C1COCC1NC(=O)[C@@H]1CCCC[C@H]1C(=O)N1CCc2c([nH]c3c(F)cccc23)C1` (stereo partly drawn) [Compound K19, (1R,2R)-2-(8-fluoro-2,3,4,9-tetrahydro-1H-pyrido[3,4-b]indole-2-carbonyl)-N-(4-oxotetrahydrofuran-3-yl)cyclohexane-1-carboxamide], the IC50 (Cathepsin K) is reported as 10 to 100 nM.
For `COc1cccc2c3c([nH]c12)CCN(C(=O)[C@@H]1CCCC[C@H]1C(=O)N[C@H]1COCC1=O)C3` [Compound K29, (1R,2R)-2-(6-methoxy-2,3,4,5-tetrahydro-1H-pyrido[4,3-b]indole-2-carbonyl)-N—(S)-(4-oxotetrahydrofuran-3-yl)-cyclohexane-1-carboxamide], the F [1] was 62.1%, the Tmax ([1]; iv, 1 mg/kg) was 1.98 min and the Bioavailability % ([1]; po) was 62.1%. The CLz ([1]; po) was 26.7 mL/min/kg, the Cmax ([1]; po) was 1,285 ng/mL and the Tmax ([1]; po) was 15 min. The Vz ([1]; po) was 3.83 L/kg, the t1/2z ([1]; po) was 99 min and the Tmax ([1]; po, 5 mg/kg) was 15 min. The Number of osteoclasts (RAW264.7 cells; 1 μM) was 13, the Number of osteoclasts (RAW264.7 cells; 10 μM) was 11.25 and the “osteoclastogenesis (in words)” value (RAW264.7 cells; 10 μM) was “obviously inhibited the osteoclastogenesis”. The “osteoclastogenesis compared with model group (in words)” value (RAW264.7 cells) was “tendency to inhibit osteoclastogenesis”.
`COc1cc(F)cc2c3c([nH]c12)CCN(C(=O)[C@@H]1CCCC[C@H]1C(=O)N[C@H]1COCC1=O)C3` [Compound K31, (1R,2R)-2-(8-fluoro-6-methoxy-2,3,4,5-tetrahydro-1H-pyrido[4,3-b]indole-2-carbonyl)-N—(S)-(4-oxotetrahydrofuran-3-yl)-cyclohexane-1-carboxamide] gave an F [1] of 51.0%, a Tmax ([1]; iv, 1 mg/kg) of 1.98 min and a Bioavailability % ([1]; po) of 51.0%. For the same molecule, the CLz ([1]; po) was 27.8 mL/min/kg, the Cmax ([1]; po) was 936 ng/mL and the Tmax ([1]; po) was 15 min. It also gave a Vz ([1]; po) of 4.38 L/kg, a t1/2z ([1]; po) of 109 min and a Tmax ([1]; po, 5 mg/kg) of 15 min. For the same molecule, the Number of osteoclasts (RAW264.7 cells; 100 nM) was 13.25, the Number of osteoclasts (RAW264.7 cells; 500 nM) was 14 and the “osteoclastogenesis compared with model group (in words)” value (RAW264.7 cells) was “tendency to inhibit osteoclastogenesis”.
In the case of `CC(C)(F)C[C@H](N[C@@H](c1ccc(-c2ccc(S(C)(=O)=O)cc2)cc1)C(F)(F)F)C(=O)NC1(C#N)CC1` [Odanacatib, reference compound], the “Cat S/K ratio of inhibitory activities” value (Cathepsin S) is reported as under 290 and the “Cat B/K ratio of inhibitory activities” value (Cathepsin B) is reported as over 590.
